From patent US11466017B2, “Heterocyclic inhibitors of PTPN11” (priority 2011, dated 2022)

Tested on: BT474 human breast carcinomas cell line
Test: In vivo tumor model, BT474 (HER2+) xenograft
Conditions: BT474 xenograft in CB-17/SCID mice, 100 mg/kg once per day oral gavage, 5 days on/2 days off, 4 weeks
Source text: Xenografts were initiated with BT474 human breast carcinomas cell line and maintained by serial subcutaneous transplantation in CB-17/SCID mice (Charles River). On the day of tumor implant, each test mouse received a 1 mm^3 BT474 fragment implanted subcutaneously in the right flank, and tumor growth was monitored as the average size approached the target range of 100 to 150 mm3. About three weeks post-implantation, the animals were randomized and grouped based on tumor volume and mouse body weight. […] Tumors were measured in two dimensions using calipers, and volume was calculated using the formula: Tumor Volume (mm^3)=w^2× ½.

Structure (SMILES): CC1(N)CCN(c2cnc3c(-c4cccc(Cl)c4Cl)n[nH]c3n2)CC1 [Example 1, 1-(3-(2,3-dichlorophenyl)-1H-pyrazolo[3,4-b]pyrazin-6-yl)-4-methylpiperidin-4-amine]
- tolerability (body weight): tolerated dose
- tumor growth (tumor volume): significant suppression of tumor growth
